Experiments:
1052 = assay: Activity against lenalidomide resistant cell lines; format: cell-based; details: 1052, n = 3; read-out: IC50
Procedure: (§1) The ability of compounds to effect the proliferation of MM cell lines was investigated in an in vitro study. Uptake of [^3H]-thymidine by H929 MM cells and 7-AAD uptake in several MM cell lines (H929, U266B1, Anbl-6, KMS-34, OPM-2, DF-15, DF15/R, CAG, MM1.S and LP-1) was measured as an indicator of cell proliferation. Cells were incubated in the presence of compounds for 72 hours ([^3H]-thymidine was included for the last 6 hours of the incubation period) or 5 days followed by 7-AAD uptake to measure and count viable cells.

H929 = assay: Activity against lenalidomide resistant cell lines; format: cell-based; details: Homo sapiens, NCI-H929; H929, n = 3
Procedure: as §1

1053 = assay: Activity against lenalidomide resistant cell lines; format: cell-based; details: 1053, n = 3; read-out: IC50
Procedure: as §1

1051 = assay: Activity against lenalidomide resistant cell lines; format: cell-based; details: 1051, n = 3; read-out: IC50
Procedure: as §1

1054 = assay: Activity against lenalidomide resistant cell lines; format: cell-based; details: 1054, n = 3; read-out: IC50
Procedure: as §1

Colo-205 = assay: Solid tumor cell colony formation; format: cell-based; details: Homo sapiens
U87 = assay: Invasion of solid tumor cells; format: cell-based; details: Homo sapiens, U-87 MG; U87 (PDGF), glioblastoma
HepG2 = assay: Invasion of solid tumor cells; format: cell-based; details: Homo sapiens; HepG2 (VEGF), hepatocellular
NCI-H929 MM xenograft = NCI-H929 MM xenograft model; format: in vivo; details: day 19
MCF-7 = assay: Solid tumor cell colony formation; format: cell-based; details: Homo sapiens, MCF7

**Q.** How did the IC50 1052 turn out when `Cc1nc2cccc(N)c2c(=O)n1C1CCC(=O)NC1=O` (stereo not drawn) [compound of Formula I, 3-(5-amino-2-methyl-4-oxo-4H-quinazolin-3-yl)-piperidine-2,6-dione] was run?
**A.** 4240 nM

**Q.** What about the IC50 (H929) of the same compound?
**A.** 154 nM

**Q.** What about the IC50 1053 of the same compound?
**A.** 2100 nM

**Q.** And the IC50 1051?
**A.** 2970 nM

**Q.** And the IC50 1054?
**A.** 6590 nM

**Q.** What about the inhibition at 10 µM (Colo-205) of the same compound?
**A.** 17%

**Q.** What about the IC50 (U87) of the same compound?
**A.** 80 nM

**Q.** What about the IC50 (HepG2) of the same compound?
**A.** < 1 nM

**Q.** And the tumor growth inhibition (NCI-H929 MM xenograft; 0.3 mg/kg)?
**A.** 59%

**Q.** What about the tumor growth inhibition (NCI-H929 MM xenograft; 3 mg/kg) of the same compound?
**A.** 73%

**Q.** And the tumor growth inhibition (NCI-H929 MM xenograft; 30 mg/kg)?
**A.** 93%

**Q.** What about the inhibition at 10 µM (MCF-7) of the same compound?
**A.** 1.4%

Source: patent US20180055844A1 (Celgene Corporation, priority 2011, published 2018)
